This note sets out measurements from patent publication US4322340A, “Pharmacologically active peptides” (Eli Lilly and Company, priority 1980, dated 1982).

Where a name gives a salt, the structure may show the parent alone.

For data set [1], the system named is mouse. Nature of the data set: mouse locomotor activity test (physical dependence liability). In kind it is in vivo. The note with it: group of ten mice. As to the method:
A high correlation has been established between the degree of physical dependence liability of a compound and its ability to elicit mouse locomotor activity; Cf. Goldstein et al., The Journal of Pharmacology and Experimental Therapeutics 169, 175-184 (1969); Rethy et al., The Journal of Pharmacology and Experimental Therapeutics 176, 472-479 (1971); and Brase et al., The Journal of Pharmacology and Experimental Therapeutics 201(2), 368-374 (1977).
Mouse locomotor activity is measured using cylindrical cages of wire mesh 2 inches high and 11 inches in diameter. Six cages are enclosed in a ventilated, sound-attenuated chamber having uniform lighting. A light beam is passed through the center of the cage to a photocell on the opposite side. Two mice are placed in each cage for one hour to become acclimated to the surroundings. Five pairs of mice then are injected subcutaneously with a predetermined dose of the test compound, the remaining pair receiving saline carrier free of test compound. The mice are returned to their respective cages for three hours. The number of counts per each 15 minute period as well as the total number over the three hour period are recorded. Each interruption of the light beam constitutes a count.
The following Table II reflects a mean of the total counts for each group of ten mice tested using a particular compound and dose level.

Data set [2] relates to mouse. Briefly: mouse hot plate test (analgesic activity). The format is in vivo. Conditions: subcutaneous injection, tested 15 minutes after administration, hot plate 52° C. As to the method:
In this test, an upright acrylic cylinder comprising, as its base, a hot plate surface which is maintained at 52° C. is used. A mouse is given, by subcutaneous injection, a predetermined amount of test compound dissolved or suspended in a suitable carrier, and, 15 minutes after administration of the test compound, the mouse is placed on the hot plate surface. The latency in seconds until the mouse jumps from the hot plate surface is measured. […] This must occur in a dose range which produces no motor incoordination or incapacitation. The following Table I records ED50 results obtained from this test. By the term "ED50 " is meant that dose which produces analgesia in 50% of the mice tested. Analgesia is defined as a response latency in the presence of test compound that is equal to or greater than the control response latency plus two standard deviations. The percent analgesia data are converted to probits, and the ED50 is calculated by regression analysis of the dose-response data. Each dose response curve must have at least four points, and each point is determined using data from a minimum of ten treated mice and ten control mice.

[3] abbreviates: Dose 128 mg./kg. subcutaneously.

For the compound `CN[C@@H](Cc1ccc(O)cc1)C(=O)N[C@H](C)C(=O)NCC(=O)N(CC1CC1)[C@@H](Cc1cccc(Br)c1)C(N)=O` [Example 1, L-(N-Methyl)tyrosyl-D-alanyl-glycyl-L-(N-cyclopropylmethyl)-m-bromophenylalanine Amide, Acetate Salt], the “mean of the total counts, locomotor activity over three hours” value (from here on “mean … over three hours”) turned out to be 171 counts in data set [1] (Dose 4 mg./kg. subcutaneously); 140 counts in data set [1] (Dose 8 mg./kg. subcutaneously); 276 counts in data set [1] (Dose 16 mg./kg. subcutaneously); 320 counts in data set [1] (Dose 32 mg./kg. subcutaneously); 1888 counts in data set [1] (Dose 64 mg./kg. subcutaneously); 2159 counts in data set [1] (setting [3]).

For `CCN(C(=O)CNC(=O)[C@@H](C)NC(=O)[C@H](Cc1ccc(O)cc1)NC)[C@@H](Cc1cccc(Br)c1)C(N)=O` [Example 2, L-(N-Methyl)tyrosyl-D-alanyl-glycyl-L-(N-ethyl)-m-bromophenylalanine Amide, Acetate Salt], the “Analgesic Activity, Hot Plate Test, ED50” value in data set [2] is 3 µg/kg. Moreover, the “mean … over three hours” value in data set [1] (Dose 4 mg./kg. subcutaneously) was determined as 142 counts; in data set [1] (Dose 8 mg./kg. subcutaneously), 235 counts; in data set [1] (Dose 16 mg./kg. subcutaneously) it was 358 counts; in data set [1] (Dose 32 mg./kg. subcutaneously) it was 701 counts; in data set [1] (Dose 64 mg./kg. subcutaneously), 2523 counts; in data set [1] (setting [3]), 5153 counts.

Turning to `CCN(C(=O)CNC(=O)[C@@H](C)NC(=O)[C@H](Cc1ccc(O)cc1)NC)[C@@H](Cc1cccc(C)c1)C(N)=O` [Example 4, L-(N-Methyl)tyrosyl-D-alanyl-glycyl-L-(N-ethyl)-m-methyl-phenylalanine Amide, Acetate Salt], in data set [2], the “Analgesic Activity, Hot Plate Test, ED50” value is 3 µg/kg. In addition, the “mean … over three hours” value amounted to 173 counts in data set [1] (Dose 4 mg./kg. subcutaneously); 255 counts in data set [1] (Dose 8 mg./kg. subcutaneously); 537 counts in data set [1] (Dose 16 mg./kg. subcutaneously); 1176 counts in data set [1] (Dose 32 mg./kg. subcutaneously); 3231 counts in data set [1] (Dose 64 mg./kg. subcutaneously); 3852 counts in data set [1] (setting [3]).

Consider `CCN(C(=O)CNC(=O)[C@@H](C)NC(=O)[C@@H](N)Cc1ccc(O)cc1)[C@@H](Cc1cccc(Cl)c1)C(N)=O` [Example 5, L-Tyrosyl-D-alanyl-glycyl-L-(N-ethyl)-m-chlorophenylalanine Amide, Acetate Salt], for which, in data set [2], the “Analgesic Activity, Hot Plate Test, ED50” value worked out at 0.3 µg/kg. Further, the “mean … over three hours” value is on record as 125 counts in data set [1] (Dose 4 mg./kg. subcutaneously); 613 counts in data set [1] (Dose 8 mg./kg. subcutaneously); 819 counts in data set [1] (Dose 16 mg./kg. subcutaneously); 2388 counts in data set [1] (Dose 32 mg./kg. subcutaneously); 3667 counts in data set [1] (Dose 64 mg./kg. subcutaneously); 2807 counts in data set [1] (setting [3]).

On to `CCN(C(=O)CNC(=O)[C@@H](C)NC(=O)[C@H](Cc1ccc(O)cc1)NC)[C@@H](Cc1cccc(Cl)c1)C(N)=O` [Example 6, L-(N-Methyl)tyrosyl-D-alanyl-glycyl-L-(N-ethyl)-m-chlorophenylalanine Amide, Acetate Salt], for which the “Analgesic Activity, Hot Plate Test, ED50” value in data set [2] was found to be 1.8 µg/kg. Further, the “mean … over three hours” value is reported as 148 counts in data set [1] (Dose 4 mg./kg. subcutaneously); 304 counts in data set [1] (Dose 8 mg./kg. subcutaneously); 796 counts in data set [1] (Dose 16 mg./kg. subcutaneously); 1978 counts in data set [1] (Dose 32 mg./kg. subcutaneously); 4477 counts in data set [1] (Dose 64 mg./kg. subcutaneously); 3476 counts in data set [1] (setting [3]).

Consider `CCN(C(=O)CNC(=O)[C@@H](C)NC(=O)[C@@H](N)Cc1ccc(O)cc1)[C@@H](Cc1cccc(I)c1)C(N)=O` [Example 7, L-Tyrosyl-D-alanyl-glycyl-L-(N-ethyl)-m-iodophenylalanine Amide, Acetate Salt], for which the “Analgesic Activity, Hot Plate Test, ED50” value in data set [2] was determined as 1.9 µg/kg. For the same compound, the “mean … over three hours” value in data set [1] (Dose 4 mg./kg. subcutaneously) was determined as 178 counts; in data set [1] (Dose 8 mg./kg. subcutaneously) it was 174 counts; in data set [1] (Dose 16 mg./kg. subcutaneously) it was 363 counts; in data set [1] (Dose 32 mg./kg. subcutaneously), 852 counts; in data set [1] (Dose 64 mg./kg. subcutaneously), 1630 counts; in data set [1] (setting [3]), 2871 counts.

Turning to `CCN(C(=O)CNC(=O)[C@@H](C)NC(=O)[C@@H](N)Cc1ccc(O)cc1)[C@@H](Cc1ccccc1)C(N)=O` [H Et H, reference compound], the “mean … over three hours” value was 704 counts in data set [1] (Dose 4 mg./kg. subcutaneously), 1204 counts in data set [1] (Dose 8 mg./kg. subcutaneously), 2916 counts in data set [1] (Dose 16 mg./kg. subcutaneously) and 3528 counts in data set [1] (Dose 32 mg./kg. subcutaneously).

As to `CCN(C(=O)CNC(=O)[C@@H](C)NC(=O)[C@H](Cc1ccc(O)cc1)NC)[C@@H](Cc1ccc(F)cc1)C(N)=O` [Me Et p-F, reference compound], the “mean … over three hours” value in data set [1] (Dose 4 mg./kg. subcutaneously) was 431 counts; in data set [1] (Dose 8 mg./kg. subcutaneously) it was 1425 counts; in data set [1] (Dose 16 mg./kg. subcutaneously) it was 2415 counts; in data set [1] (Dose 32 mg./kg. subcutaneously), 2033 counts.

Consider “L-Tyrosyl-D-alanyl-glycyl-L-(N-ethyl)-m-bromophenylalanine Amide, Acetate Salt [Example 3]”, for which, in data set [2], the “Analgesic Activity, Hot Plate Test, ED50” value turned out to be 4.9 µg/kg. The “mean … over three hours” value is recorded as 200 counts in data set [1] (Dose 8 mg./kg. subcutaneously), 512 counts in data set [1] (Dose 16 mg./kg. subcutaneously), 1092 counts in data set [1] (Dose 32 mg./kg. subcutaneously) and 2820 counts in data set [1] (Dose 64 mg./kg. subcutaneously).
